Laboratory results from patent US12685490B2 (The Board of Trustees of the Leland Stanford Junior …, priority 2020, dated 2026).
Like-named read-outs stand apart in the source and are kept apart here. Values belong to the molecule of their own block, whether it stands above or below them. Residues, ends and D or L forms follow the SMILES beside them.

Assays:
Fluos-IAPP = biological target: T1, Fluos-IAPP (Homo sapiens, UniProt P10997); experiment: Fluorescence spectroscopic titrations; type: binding; conditions: for Kd: pH 7.4, mean (SD) of 3 binding curves, read-out: app. Kd
T1 construct: made in house; host or cells: chemical synthesis
T1 sequence (P10997 34-70 limits assumed): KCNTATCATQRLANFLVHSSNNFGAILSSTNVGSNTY
Method: Fluorescence spectroscopic titration studies were performed with a JASCO FP-6500 fluorescence spectrophotometer using a previously described experimental protocol. Briefly, excitation was at 492 nm and emission spectra were recorded between 500 and 600 nm. […] For all experiments, freshly made stocks of peptides and their fluorescently labeled analogs in HFIP were used. Measurements were performed in 10 mM sodium phosphate buffer (pH 7.4) containing 1% HFIP within 2-5 min following solution preparation at room temperature. Of note, under these conditions freshly made Fluos-IAPP (5 nM) solutions consist mostly of monomers. App. Kds were calculated using 1/1 binding models as previously described and are means (±SD) of three binding curves.

[1] = system: IAPP cytotoxicity in RIN5fm cells; experiment: MTT reduction assay: formation of β-cell damaging IAPP assemblies; type: cell-based, rat
Method: (§1) Briefly, RIN5fm cells were cultured and plated in 96-well plates as described. Solutions of IAPP alone and its mixtures with peptides were aged in ThT assay buffer as described under “ThT binding assays”. At the indicated incubation time points (24 h or 7 days) aliquots were diluted with cell culture medium and added to the cells. Following incubation with the cells for ~20 h (37° C., humified atmosphere containing 5% CO2), cell damage was verified by the MTT reduction assay.

IAPP [2] = biological target: T2, IAPP (Homo sapiens, UniProt P10997); experiment: Thioflavin T (ThT) binding assay of IAPP fibrillogenesis; type: biochemical; conditions: for effect on IAPP amyloid self-assembly (fibrillogenesis): IAPP/peptide 1/1
T2 construct: made in house; host or cells: chemical synthesis (Fmoc solid-phase, Rink resin)
T2 sequence (P10997 34-70 limits assumed): T1 sequence (P10997 34-70 limits assumed)
Method: Of note, an incubation of LL-37 alone was also included. At the indicated time points aliquots were mixed with the ThT solution consisting of 20 μM ThT in 0.05 M glycine/NaOH (pH 8.5) and binding was determined by measuring fluorescence emission at 486 nm upon excitation at 450 nm using a Multilabel reader VictorX3 (Perkin Elmer Life Sciences). […] An aliquot of a solution consisting mostly of IAPP fibrils (fIAPP) based on ThT binding and TEM (FIGS. 18-19) (7 days aged IAPP (16.5 μM) made as above) was added to the incubations resulting in a final seed (fIAPP) concentration of 1.65 μM. Incubations of (unseeded) IAPP alone (16.5 μM) and of 10% fIAPP alone were included as controls. ThT binding was determined at the indicated time points as above. […] Solutions containing (unseeded) IAPP alone (16.5 μM), IAPP seeded with fIAPP (10%), and IAPP seeded with LL-37-treated fIAPP (10%) were made in ThT assay buffer and kinetics of fibrillogenesis were determined by the ThT binding assay as described above.

IAPP [3] = biological target: T2, IAPP; experiment: Cross-linking, NuPAGE and Western blot; conditions: IAPP 30 μM, 1/1, pH 7.4
Method: Cross-linking studies were preformed using a previously developed assay system. […] Solutions were cross-linked using 25% aqueous glutaraldehyde (Sigma-Aldrich) and 10% aqueous trichloroacetic acid (TCA) was used to precipitate cross-linked peptides. Pellets were dissolved in reducing NuPAGE sample buffer, boiled for 5 min, and subjected to NuPAGE electrophoresis in 4-12% Bis-Tris gels with MES running buffer (Invitrogen). The same volume of each solution (same IAPP amount) was loaded in all lanes. Peptides were blotted using a XCell II Blot Module blotting system (Invitrogen).

RIN5fm cells = type: cell-based, rat
Method: as §1

IAPP [4] = biological target: T2, IAPP; experiment: Far-UV CD spectroscopy of IAPP conformation and misfolding; conditions: 1/1, 5 μM each, pH 7.4
Method: Far-UV CD studies were performed using a Jasco 715 spectropolarimeter. Spectra were recorded at room temperature between 195 and 250 nm, at 0.1 nm intervals, and with a response time of 1 second. Each spectrum is an average of 3 spectra. All CD studies were performed in aqueous 10 mM sodium phosphate buffer (pH 7.4) containing 1% HFIP (CD assay buffer) at room temperature; this assay system has been earlier developed and found to be suitable for following kinetics of IAPP (5 μM) misfolding into β-sheets and amyloid fibrils alone or in the presence of inhibitors. Briefly, peptide stocks in HFIP were freshly made (4° C.), diluted with assay buffer (room temperature) at the indicated concentrations within the cuvette, and following gentle mixing spectra were measured immediately or at the indicated incubation time points. […] The CD spectrum of IAPP at the incubation time point of 24 h (endpoint) was measured after gentle mixing to re-dissolve precipitated aggregates. The CD spectrum of the buffer was always subtracted from the CD spectra of the peptide solutions.

[5] = system: autoimmune diabetes in NOD mice; conditions: prediabetic NOD mice; cited from earlier work
[6] = biological target: T3, IAPP monomers and fibrils (Homo sapiens, UniProt P10997); experiment: Dot blot analysis; type: binding; conditions: FAM-LL-37 200 nM, IAPP 40 μg spotted
T3 construct: made in house; host or cells: chemical synthesis (Fmoc solid-phase, Rink resin)
T3 sequence (P10997 34-70 limits assumed): T1 sequence (P10997 34-70 limits assumed)
Method: IAPP monomers or IAPP fibrils (fIAPP) containing solutions (different amounts up to 40 μg) were spotted onto a nitrocellulose membrane. These solutions were prepared by incubating an IAPP solution (1 mg/ml) in ThT assay buffer for 0 h (“monomers”) or 24 h (“fibrils”); the presence of fibrils was confirmed by ThT binding and TEM (not shown). The membrane was washed with TBSn (20 mM Tris/HCl, 150 mM NaCl and 0.05% Tween-20), blocked with 5% milk in TBSn overnight at 10° C., and washed again with TBSn. […] Following washings with incubation buffer and TBSn, bound FAM-LL-37 was visualized with a LAS-4000mini instrument (Fujifilm). Of note, glucagon fibrils were spotted as well to control for the specificity of the observed strong binding of FAM-LL-37 to fIAPP (not shown). Glucagon fibrils were made by incubating glucagon in 10 mM HCl (2 μg/μl) (10 days) followed by neutralization with 10 mM NaOH; ThT binding and TEM confirmed fibril formation (not shown). The ThT buffer alone was also spotted to control for NSB. In addition, to control for the interference of fibril autofluorescence, a membrane containing spotted fIAPP which had been incubated in buffer alone w/o FAM-LL-37 was included in each assay; in general, fIAPP autofluorescence contributed up to 25% of the total amount of fluorescence observed in fIAPP bound to FAM-LL-37.

[7] = aged IAPP/peptide mixtures 1/1, RIN5fm cells

Molecule: CC[C@H](C)[C@H](NC(=O)[C@H](CCCCN)NC(=O)[C@H](CCC(=O)O)NC(=O)[C@H](CCCCN)NC(=O)[C@H](CO)NC(=O)[C@H](CCCCN)NC(=O)[C@H](CCCNC(=N)N)NC(=O)[C@H](Cc1ccccc1)NC(=O)[C@H](Cc1ccccc1)NC(=O)[C@H](CC(=O)O)NC(=O)CNC(=O)[C@H](CC(C)C)NC(=O)[C@@H](N)CC(C)C)C(=O)NCC(=O)N[C@@H](CCCCN)C(=O)N[C@@H](CCC(=O)O)C(=O)N[C@@H](Cc1ccccc1)C(=O)N[C@@H](CCCCN)C(=O)N[C@@H](CCCNC(=N)N)C(=O)N[C@H](C(=O)N[C@H](C(=O)N[C@@H](CCC(N)=O)C(=O)N[C@@H](CCCNC(=N)N)C(=O)N[C@H](C(=O)N[C@@H](CCCCN)C(=O)N[C@@H](CC(=O)O)C(=O)N[C@@H](Cc1ccccc1)C(=O)N[C@@H](CC(C)C)C(=O)N[C@@H](CCCNC(=N)N)C(=O)N[C@@H](CC(N)=O)C(=O)N[C@@H](CC(C)C)C(=O)N[C@H](C(=O)N1CCC[C@H]1C(=O)N[C@@H](CCCNC(=N)N)C(=O)N[C@H](C(=O)N[C@@H](CCC(=O)O)C(=O)N[C@@H](CO)C(=O)O)[C@@H](C)O)C(C)C)[C@@H](C)CC)C(C)C)[C@@H](C)CC [LL-37]
increase of Fluos-IAPP fluorescence emission (Fluos-IAPP; Fluos-IAPP 5 nM, 100-fold molar excess of LL-37): 322%
Kd (Fluos-IAPP; Fluos-IAPP 5 nM): 88.1 nM
effect on formation of cytotoxic IAPP assemblies (cell-damaging effects) [1]: effectively suppressed formation of cytotoxic IAPP assemblies
IC50 ([1]; rat): 17 nM
hetero-assemblies with IAPP by cross-linking (IAPP [3]): formation of IAPP-LL-37 hetero-tetramers
cytotoxicity of peptide alone (RIN5fm cells): not cytotoxic
effect on IAPP conformation / misfolding (IAPP [4]): strong time-dependent increase of random coil contents and no precipitation occurred
effect on IAPP amyloid self-assembly (fibrillogenesis) (IAPP [2]; IAPP 16.5 μM): effectively suppressed IAPP amyloid self-assembly
effect on seeding of IAPP fibrillogenesis by fIAPP (10%) (IAPP [2]; IAPP 16.5 μM, LL-37 1/1, 10% fIAPP seeds): fully suppressed
seeding ability of fIAPP after treatment with peptide (IAPP [2]; fIAPP incubated with LL-37 (10-fold) for 24 h, used as 10% seeds): converts them into seeding incompetent assemblies

Molecule: CC[C@H](C)[C@H](NC(=O)[C@H](CCCCN)NC(=O)[C@H](CO)NC(=O)[C@H](Cc1ccccc1)NC(=O)[C@H](CCC(=O)O)NC(=O)[C@H](Cc1ccccc1)NC(=O)[C@H](CCCNC(=N)N)NC(=O)[C@H](CC(C)C)NC(=O)[C@H](CCCCN)NC(=O)[C@H](CC(C)C)NC(=O)CN)C(=O)N[C@@H](CCCCN)C(=O)NCC(=O)N[C@@H](CCC(=O)O)C(=O)N[C@@H](Cc1ccccc1)C(=O)N[C@@H](CC(C)C)C(=O)N[C@@H](CCCCN)C(=O)N[C@H](C(=O)N1CCC[C@H]1C(=O)N[C@@H](CCC(=O)O)C(=O)N[C@H](C(=O)N[C@@H](CCCNC(=N)N)C(=O)N[C@@H](Cc1ccccc1)C(=O)N[C@@H](CCCNC(=N)N)C(=O)N[C@@H](CC(=O)O)C(=O)N[C@H](C(=O)N[C@@H](CCCCN)C(=O)N[C@@H](CC(C)C)C(=O)N[C@@H](CCCCN)C(=O)N[C@@H](CC(=O)O)C(=O)N[C@@H](CC(N)=O)C(=O)N[C@@H](CCCNC(=N)N)C(=O)N[C@H](C(=O)N[C@@H](CO)C(=O)N[C@H](C(=O)N[C@@H](CCC(N)=O)C(=O)N[C@@H](CCCNC(=N)N)C(=O)O)C(C)C)[C@@H](C)CC)[C@@H](C)CC)C(C)C)[C@@H](C)O [scrLL-37, reference compound] (H-GLKLRFEFSKIKGEFLKTPEVRFRDIKLKDNRISVQR-OH)
effect on IAPP cytotoxicity ([1]; up to 10-fold molar excess of peptide, 7 days aged, RIN5fm cells): unable to inhibit

Molecule: CRAMP
effect on autoimmune diabetes [5]: dampening the incidence of autoimmune diabetes

Molecule: FAM-LL-37: N-amino-terminal fluorescein labeled LL-37 with a 6-aminohexanoic acid spacer between FAM and the N-terminus
binding to IAPP monomers and fibrils [6]: bound both IAPP fibrils and monomers

Continued, in another order:

Kd (Fluos-IAPP; Fluos-IAPP 5 nM): 2540 nM
weaker binding to Fluos-IAPP (Fluos-IAPP; app. Kd comparison): ~ 30 fold
effect on IAPP amyloid self-assembly (fibrillogenesis) (IAPP [2]; IAPP 16.5 μM): unable to interfere
Molecule: CC[C@H](C)[C@H](NC(=O)[C@H](CCCCN)NC(=O)[C@H](CCC(=O)O)NC(=O)[C@H](CCCCN)NC(=O)[C@H](CO)NC(=O)[C@H](CCCCN)NC(=O)[C@H](CCCNC(=N)N)NC(=O)[C@H](Cc1ccccc1)NC(=O)[C@H](Cc1ccccc1)NC(=O)[C@H](CC(=O)O)NC(=O)CNC(=O)[C@H](CC(C)C)NC(=O)[C@@H](N)CC(C)C)C(=O)NCC(=O)O [LL-37(1-14)] (H-LLGDFFRKSKEKIG-OH; N-terminus assumed)
effect on formation of cytotoxic IAPP assemblies (cell-damaging effects) [1, 7]: unable to interfere

Kd (Fluos-IAPP; Fluos-IAPP 5 nM): 31.9 nM
effect on IAPP amyloid self-assembly (fibrillogenesis) (IAPP [2]; IAPP 16.5 μM): unable to interfere
Molecule: CC[C@H](C)[C@H](NC(=O)[C@H](CCCNC(=N)N)NC(=O)[C@H](CCC(N)=O)NC(=O)[C@@H](NC(=O)[C@@H](NC(=O)[C@H](CCCNC(=N)N)NC(=O)[C@H](CCCCN)NC(=O)[C@H](Cc1ccccc1)NC(=O)[C@H](CCC(=O)O)NC(=O)[C@@H](N)CCCCN)[C@@H](C)CC)C(C)C)C(=O)N[C@@H](CCCCN)C(=O)N[C@@H](CC(=O)O)C(=O)N[C@@H](Cc1ccccc1)C(=O)N[C@@H](CC(C)C)C(=O)N[C@@H](CCCNC(=N)N)C(=O)N[C@@H](CC(N)=O)C(=O)N[C@@H](CC(C)C)C(=O)N[C@H](C(=O)N1CCC[C@H]1C(=O)N[C@@H](CCCNC(=N)N)C(=O)N[C@H](C(=O)N[C@@H](CCC(=O)O)C(=O)N[C@@H](CO)C(=O)O)[C@@H](C)O)C(C)C [LL-37(15-37)] (H-KEFKRIVQRIKDFLRNLVPRTES-OH; N-terminus assumed)
effect on formation of cytotoxic IAPP assemblies (cell-damaging effects) [1, 7]: unable to interfere
